20 compounds from patent US20250084084A1, “Crystalline form of (2R)-2-(5-fluoro-2-methoxypyridin-4-yl)-1-[(2S)-7-methyl-6-(pyrimidin-2-yl)-3,4-dihydro-1H-spiro[1,8-naphthyridine-2,3-pyrrolidin]-1-yl]propan-1-one” (Pfizer Inc., priority 2020, published 2025) can be followed below.

In general, Ki refers to the dissociation constant of the complex between target and ligand, obtained from inhibition or displacement.

The structures appear in SMILES notation.

α-melanocyte-stimulating hormone receptor (hMC4R), sequence (P32245 whole entry): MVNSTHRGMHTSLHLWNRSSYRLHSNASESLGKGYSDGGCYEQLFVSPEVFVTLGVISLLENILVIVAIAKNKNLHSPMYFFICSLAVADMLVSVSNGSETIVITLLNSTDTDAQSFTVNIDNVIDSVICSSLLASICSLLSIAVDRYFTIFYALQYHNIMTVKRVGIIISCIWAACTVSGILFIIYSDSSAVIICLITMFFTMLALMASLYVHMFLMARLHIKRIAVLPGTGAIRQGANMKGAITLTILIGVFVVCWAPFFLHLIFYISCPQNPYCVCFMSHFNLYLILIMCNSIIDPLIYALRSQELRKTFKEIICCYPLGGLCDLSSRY

This experiment concerns the target α-melanocyte-stimulating hormone receptor (hMC4R) (Homo sapiens (Human), UniProt P32245). As to the kind of experiment: In vitro binding affinity assay using hMC4R (radioligand competition binding, [125I]-(Nle4, D-Phe7)-α-MSH). The following applies: geometric mean, read-out: Ki (nM) geometric. Here is the method:
The binding affinity of test compounds at the α-melanocyte-stimulating hormone receptor (hMC4R) was assessed using a radioligand competition binding assay. Recombinant Chinese hamster ovaries (CHO) cells stably expressing hMC4R (PerkinElmer #ES-191-C) were used for competitive binding. hMC4R membranes were grown in Dulbecco's Modified Essential Medium and Ham's F-12 Medium (DMEM/F12), 10% heat inactivated fetal bovine serum (FBS), 0.4 mg/mL Geneticin and 2 mM L-glutamine. Cell membranes were bulked and frozen until the assay was performed.
Compounds were solubilized in 100% dimethyl sulfoxide (DMSO) to a concentration of 30 mM. A 10-point intermediate dilution series using half log dilutions was created in 100% DMSO with a top concentration of 0.03 mM. The serially diluted compounds were spotted as 1 μL/well, in 96-well Costar 3363 plates. The final compound range in the assay was 300 nM to 0.01 nM with a final DMSO concentration of 1%. Control wells, containing 1 μL of 2 mM ([…]) alpha-melanocyte stimulating hormone (α-MSH-Tocris #2584) was added to the non-specific binding wells and 1 μL 100% DMSO for the total binding control wells. […] The exact concentration of radioligand used for each experiment was determined by liquid scintillation counting and adjusted if necessary.
Frozen hMC4R cell membranes were thawed and Dounce homogenized. Homogenates were resuspended in assay buffer to a concentration of 2 μg per well. […] The plates were incubated for 2 hours at room temperature. Assay samples were then rapidly filtered through Unifilter-96 GF/B PEI coated filter plates using a filter plate harvester (PerkinElmer) and rinsed with ice-cold wash buffer [25 mM (4-(2-hydroxyethyl)-1-piperazineethanesulfonic acid (HEPES), 1 mM MgCl2, 2.5 mM CaCl2, and 500 mM NaCl]. Filter plates were dried overnight at room temperature. Plates were then bottom-sealed prior to the addition of 50 μL/well Ultima Gold XR scintillation fluid (PerkinElmer 6013111). Plates were then top-sealed, incubated for 60 minutes at room temperature and then the amount of radioactivity present was determined by liquid scintillation counting on a Microbeta Trilux (PerkinElmer #2450-0060).
The raw data (expressed as counts per minute) were analyzed using ActivityBase (IDBS Data Management Software). […] Equilibrium dissociation constant for inhibitor of ligand and receptor interaction (Ki) values were then calculated from the IC50 values using the Cheng-Prusoff equation: Ki=IC50/(1+([L]/Kd)), where [L] is the concentration of the radioligand used in the experiment and Kd is the affinity of the radioligand (determined in separate saturation experiments).
In general terms: Loss of bound radioactivity is the signal in a displacement assay; it reports binding, not function.
As to `Cc1nc2c(cc1-c1nc(C(F)F)n(C)n1)CC[C@@]1(CCN(C(=O)Cc3ccc(F)c(F)c3)C1)N2` [Example 121, 1-{(2S)-6-[5-(difluoromethyl)-1-methyl-1H-1,2,4-triazol-3-yl]-7-methyl-3,4-dihydro-1H-spiro[1,8-naphthyridine-2,3′-pyrrolidin]-1′-yl}-2-(3,4-difluorophenyl)ethan-1-one], the Ki amounted to 0.49 nM.
With `COc1cc([C@@H](C)C(=O)N2CC[C@@]3(CCc4cc(-c5nc(C(F)F)n(C)n5)c(C)nc4N3)C2)c(F)cn1` [Example 122, (2R)-1-{(2S)-6-[5-(difluoromethyl)-1-methyl-1H-1,2,4-triazol-3-yl]-7-methyl-3,4-dihydro-1H-spiro[1,8-naphthyridine-2,3′-pyrrolidin]-1′-yl}-2-(5-fluoro-2-methoxypyridin-4-yl)propan-1-one], the Ki is 0.49 nM.
Consider `COc1cc([C@@H](C)C(=O)N2CC[C@@]3(CCc4cc(C5CCOCC5)c(C)nc4N3)C2)c(F)cn1` [Example 131, (2R)-2-(5-fluoro-2-methoxypyridin-4-yl)-1-[(2S)-7-methyl-6-(oxan-4-yl)-3,4-dihydro-1H-spiro[1,8-naphthyridine-2,3′-pyrrolidin]-1′-yl]propan-1-one], for which the Ki worked out at 5.8 nM.
`COc1cc([C@@H](C)C(=O)N2CC[C@@]3(CCc4cc(-c5cn(C(F)F)c(C)n5)c(C)nc4N3)C2)c(F)cn1` [Example 138, (2R)-1-{(2S)-6-[1-(difluoromethyl)-2-methyl-1H-imidazol-4-yl]-7-methyl-3,4-dihydro-1H-spiro[1,8-naphthyridine-2,3′-pyrrolidin]-1′-yl}-2-(5-fluoro-2-methoxypyridin-4-yl)propan-1-one]: the Ki was found to be 0.9 nM.
On to `COc1cc([C@@H](C)C(=O)N2CC[C@@]3(CCc4cc(-c5ccc(F)cn5)c(C)nc4N3)C2)c(F)cn1` [Example 139, (2R)-2-(5-fluoro-2-methoxypyridin-4-yl)-1-[(2S)-6-(5-fluoropyridin-2-yl)-7-methyl-3,4-dihydro-1H-spiro[1,8-naphthyridine-2,3′-pyrrolidin]-1′-yl]propan-1-one], for which the Ki was 13 nM.
With `COc1cc([C@@H](C)C(=O)N2CC[C@@]3(CCc4cc(-c5ccccn5)c(C)nc4N3)C2)c(F)cn1` [Example 140, (2R)-2-(5-fluoro-2-methoxypyridin-4-yl)-1-[(2S)-7-methyl-6-(pyridin-2-yl)-3,4-dihydro-1H-spiro[1,8-naphthyridine-2,3′-pyrrolidin]-1′-yl]propan-1-one], the Ki was determined as 6.3 nM.
As to `COc1cc([C@@H](C)C(=O)N2CC[C@@]3(CCc4cc(-c5ccnnc5)c(C)nc4N3)C2)c(F)cn1` [Example 141, (2R)-2-(5-fluoro-2-methoxypyridin-4-yl)-1-[(2S)-7-methyl-6-(pyridazin-4-yl)-3,4-dihydro-1H-spiro[1,8-naphthyridine-2,3′-pyrrolidin]-1′-yl]propan-1-one], the Ki stood at 14 nM.
Consider `COc1cc([C@@H](C)C(=O)N2CC[C@@]3(CCc4cc(-c5nccc(C(F)(F)F)n5)c(C)nc4N3)C2)c(F)cn1` [Example 143, (2R)-2-(5-fluoro-2-methoxypyridin-4-yl)-1-{(2S)-7-methyl-6-[4-(trifluoromethyl)pyrimidin-2-yl]-3,4-dihydro-1H-spiro[1,8-naphthyridine-2,3′-pyrrolidin]-1′-yl}propan-1-one], for which the Ki turned out to be 1.3 nM.
Regarding `COc1cc([C@@H](C)C(=O)N2CC[C@@]3(CCc4cc(-c5ncc(Cl)cn5)c(C)nc4N3)C2)c(F)cn1` [Example 144, (2R)-1-[(2S)-6-(5-chloropyrimidin-2-yl)-7-methyl-3,4-dihydro-1H-spiro[1,8-naphthyridine-2,3′-pyrrolidin]-1′-yl]-2-(5-fluoro-2-methoxypyridin-4-yl)propan-1-one], the Ki is 2 nM.
Regarding `COc1cc([C@@H](C)C(=O)N2CC[C@@]3(CCc4cc(-c5ncc(C(F)(F)F)cn5)c(C)nc4N3)C2)c(F)cn1` [Example 145, (2R)-2-(5-fluoro-2-methoxypyridin-4-yl)-1-{(2S)-7-methyl-6-[5-(trifluoromethyl)pyrimidin-2-yl]-3,4-dihydro-1H-spiro[1,8-naphthyridine-2,3′-pyrrolidin]-1′-yl}propan-1-one], the Ki turned out to be 8.7 nM.
Consider `COc1cc([C@@H](C)C(=O)N2CC[C@@]3(CCc4cc(-c5ncc(F)cn5)c(C)nc4N3)C2)c(F)cn1` [Example 146, (2R)-2-(5-fluoro-2-methoxypyridin-4-yl)-1-[(2S)-6-(5-fluoropyrimidin-2-yl)-7-methyl-3,4-dihydro-1H-spiro[1,8-naphthyridine-2,3′-pyrrolidin]-1′-yl]propan-1-one], for which the Ki is 1.2 nM.
For `COc1cc([C@@H](C)C(=O)N2CC[C@@]3(CCc4cc(-c5nc6n(n5)CCC6(F)F)c(C)nc4N3)C2)c(F)cn1` [Example 147, (2R)-1-[(2S)-6-(7,7-difluoro-6,7-dihydro-5H-pyrrolo[12-b][1,2,4]triazol-2-yl)-7-methyl-3,4-dihydro-1H-spiro[1,8-naphthyridine-2,3′-pyrrolidin]-1′-yl]-2-(5-fluoro-2-methoxypyridin-4-yl)propan-1-one], the Ki was determined as 0.62 nM.
Then `COc1cc([C@@H](C)C(=O)N2CC[C@@]3(CCc4cc(-c5cnsc5)c(C)nc4N3)C2)c(F)cn1` [Example 150, (2R)-2-(5-fluoro-2-methoxypyridin-4-yl)-1-[(2S)-7-methyl-6-(1,2-thiazol-4-yl)-3,4-dihydro-1H-spiro[1,8-naphthyridine-2,3′-pyrrolidin]-1′-yl]propan-1-one], with 3.9 nM; and `COc1cc([C@@H](C)C(=O)N2CC[C@@]3(CCc4cc(-c5cnc(C)nc5)c(C)nc4N3)C2)c(F)cn1` [Example 151, (2R)-2-(5-fluoro-2-methoxypyridin-4-yl)-1-[(2S)-7-methyl-6-(2-methylpyrimidin-5-yl)-3,4-dihydro-1H-spiro[1,8-naphthyridine-2,3′-pyrrolidin]-1′-yl]propan-1-one], with 23 nM; and `COc1cc([C@@H](C)C(=O)N2CC[C@@]3(CCc4cc(-c5cccc(-c6nnc(C)o6)n5)c(C)nc4N3)C2)c(F)cn1` [Example 152, (2R)-2-(5-fluoro-2-methoxypyridin-4-yl)-1-{(2S)-7-methyl-6-[6-(5-methyl-1,3,4-oxadiazol-2-yl)pyridin-2-yl]-3,4-dihydro-1H-spiro[1,8-naphthyridine-2,3′-pyrrolidin]-1′-yl}propan-1-one], with 2.5 nM.
Under `COc1cc([C@@H](C)C(=O)N2CC[C@@]3(CCc4cc(-c5cnc(C)s5)c(C)nc4N3)C2)c(F)cn1` [Example 153, (2R)-2-(5-fluoro-2-methoxypyridin-4-yl)-1-[(2S)-7-methyl-6-(2-methyl-1,3-thiazol-5-yl)-3,4-dihydro-1H-spiro[1,8-naphthyridine-2,3′-pyrrolidin]-1′-yl]propan-1-one] stands 3.3 nM; under `COc1cc([C@@H](C)C(=O)N2CC[C@@]3(CCc4cc(-c5cnn6cccnc56)c(C)nc4N3)C2)c(F)cn1` [Example 154, (2R)-2-(5-fluoro-2-methoxypyridin-4-yl)-1-[(2S)-7-methyl-6-(pyrazolo[1,5-a]pyrimidin-3-yl)-3,4-dihydro-1H-spiro[1,8-naphthyridine-2,3′-pyrrolidin]-1′-yl]propan-1-one], 0.72 nM; under `COc1cc([C@@H](C)C(=O)N2CC[C@@]3(CCc4cc(-c5ccc(C(F)(F)F)cn5)c(C)nc4N3)C2)c(F)cn1` [Example 155, (2R)-2-(5-fluoro-2-methoxypyridin-4-yl)-1-{(2S)-7-methyl-6-[5-(trifluoromethyl)pyridin-2-yl]-3,4-dihydro-1H-spiro[1,8-naphthyridine-2,3′-pyrrolidin]-1′-yl}propan-1-one], 27 nM.
Then `COc1cc([C@@H](C)C(=O)N2CC[C@@]3(CCc4cc(-c5cncc(C)n5)c(C)nc4N3)C2)c(F)cn1` [Example 156, (2R)-2-(5-fluoro-2-methoxypyridin-4-yl)-1-[(2S)-7-methyl-6-(6-methylpyrazin-2-yl)-3,4-dihydro-1H-spiro[1,8-naphthyridine-2,3′-pyrrolidin]-1′-yl]propan-1-one], with 5.9 nM; and `COc1cc([C@@H](C)C(=O)N2CC[C@@]3(CCc4cc(-c5nc(C(C)(C)C)cs5)c(C)nc4N3)C2)c(F)cn1` [Example 157, (2R)-1-[(2S)-6-(4-tert-butyl-1,3-thiazol-2-yl)-7-methyl-3,4-dihydro-1H-spiro[1,8-naphthyridine-2,3′-pyrrolidin]-1′-yl]-2-(5-fluoro-2-methoxypyridin-4-yl)propan-1-one], with 15 nM.
